Source: patent US10125101B2, “Indanylaminopyridylcyclopropanecarboxylic acids, pharmaceutical compositions and uses thereof” (Boehringer Ingelheim International GmbH, priority 2016, dated 2018)
Converted amounts (≈) assume the structure as drawn. Read-outs that look alike come from different tables or passages of the source.

Columns and labels:
human GPR40 receptor = human GPR40 receptor (Homo sapiens (Human), UniProt O14842); test: IP1 accumulation measurements using the IPOne assay system; assay type: cell-based
Procedure: IP1 accumulation measurements using the IPOne assay system—1321N1 cells stably expressing human GPR40 receptor (Euroscreen, Belgium) are seeded 24 h before the assay in white 384-well plates in culture medium containing 10% FCS, 1% Na-Pyruvate and 400 μg/mL G418. IP1 is assayed according to the manufacturer's description (Cisbio Bioassays, France). In brief, the assay is started by substitution of the culture medium by stimulation buffer (Hepes 10 mM, CaCl2 1 mM, MgCl2 0.5 mM, KCl 4.2 mM, NaCl 146 mM, glucose 5.5 mM and LiCl 50 mM, pH 7.4). Cells are stimulated for 1 h at 37° C., 5% CO2 by addition of the compounds that are diluted in stimulation buffer containing LiCl. Assays are stopped by adding HTRF-conjugates (IP1-d2 and Anti-IP1 cryptate Tb) and lysis buffer, provided by the manufacturer. After an incubation time of 1 h at room temperature plates are measured using an EnVision™, Perkin Elmer. The obtained fluorescence ratios at 665/615 […] are then used to calculate the pEC50 values using Assay Explorer 3.3 Software (Accelrys, Inc.) by interpolation using an IP1 reference curve and subsequent sigmoidal curve fitting allowing for a variable hill slope.

[1] = Chemical stability (degradation kinetics) in acidic aqueous media; assay type: physicochemical; conditions: pH value ca. 1.2 (acetonitrile/0.1 M aqueous HCl 2:3), 37° C.
Procedure: Degradation kinetics is used to simulate chemical stability of compounds in the acidic part of the gastro intestinal tract. […] Their application as medical drugs to treat human diseases is therefore less restricted and troublesome.
The chemical stability of the compounds of the invention at pH value of ca. 1.2 is determined as follows:
Compound is dissolved in an HPLC vial either in a mixture of acetonitrile/0.1 M aqueous HCl (2:3; pH ca. 1.2) or in a mixture of acetonitrile/McIlvaine buffer pH 7.4 (2:3) to get a concentration of approximately 0.25 mg/ml. The vial was then transferred into an HPLC autosampler system and maintained at a temperature of 37° C. A first sample is taken and injected immediately into a standard HPLC system with a UV DAD detector. Further samples are injected after 2, 4, 6, 8 and 10 hours. Amount of degraded compound is measured by determining the recovery rate of compound [%] for each injection using an HPLC standard gradient method. Therefore the peak area of the main peak for the first injection (AUt0) is determined and set as 100%. Peak area of the main peak is determined also for the further injections (AUtn, n=2, 4, 6, 8, 10) and expressed as fraction of (AUt0)/(AUtn, n=2, 4, 6, 8, 10) [%].

Aqueous solubility = assay type: physicochemical; conditions: buffer pH 2.2, 24 h shaking, 2.5% DMSO; for solubility at 24 h: aqueous buffer, kinetic from dmso stock
Procedure: Starting from a 10 mM DMSO stock solution aliquots are diluted with acetonitrile/water (1/1) or buffer, respectively. After 24 h of shaking, the solutions are filtrated and analyzed by LC-UV. The amount dissolved in buffer is compared to the amount in the acetonitrile solution.

[2] = target: cytochrome P450 2C8-isoenzyme (Homo sapiens (Human), UniProt P10632); test: Inhibition of CYP-2C8 (amodiaquine deethylation, human liver microsomes); assay type: in vitro ADME; conditions: amodiaquine 1 μM, 37° C.
Procedure: (§1) All assays are carried out on a robotic system in 96 well plates. The final incubation volume contains TRIS buffer (0.1 M), MgCl2 (5 mM), human liver microsomes (0.05 mg/mL), amodiaquine (1 μM) and the test compound at five different concentrations or no compound (high control) in duplicate (e.g. highest concentration 10-50 μM with subsequent serial 1:4 dilutions). Following a short preincubation period, reactions are started with the cofactor (NADPH, 1 mM) and stopped by cooling the incubation down to 8° C. and subsequently by addition of one volume of acetonitrile. An internal standard solution—the stable isotope d5-desethylamodiaquine—is added after quenching of incubations. Peak area analyte (=metabolite formed) and internal standard is determined by LC-MS/MS. The resulting peak area ratio analyte to internal standard in these incubations is compared to a control activity containing no test compound. Within each of the assay runs, the IC50 of a positive control inhibitor (Montelukast) is determined.

[3] = target: cytochrome P450 2C9-isoenzyme (Homo sapiens (Human), UniProt P11712); test: Inhibition of CYP-2C9 (diclofenac hydroxylation, human liver microsomes); assay type: in vitro ADME; conditions: diclofenac 10 μM, 37° C.
Procedure: as §1, with “(0.1” for “(0.05”, “diclofenac (10” for “amodiaquine (1”, “(e.g.,” for “(e.g.”, “^13C6-hydroxydiclofenac—is” for “d5-desethylamodiaquine—is”, “(sulfaphenazole)” for “(Montelukast)”

[4] = 1321N1 cells stably expressing human GPR40, 1 h stimulation, read-out: EC50

Chain of human GPR40 receptor (O14842 whole entry): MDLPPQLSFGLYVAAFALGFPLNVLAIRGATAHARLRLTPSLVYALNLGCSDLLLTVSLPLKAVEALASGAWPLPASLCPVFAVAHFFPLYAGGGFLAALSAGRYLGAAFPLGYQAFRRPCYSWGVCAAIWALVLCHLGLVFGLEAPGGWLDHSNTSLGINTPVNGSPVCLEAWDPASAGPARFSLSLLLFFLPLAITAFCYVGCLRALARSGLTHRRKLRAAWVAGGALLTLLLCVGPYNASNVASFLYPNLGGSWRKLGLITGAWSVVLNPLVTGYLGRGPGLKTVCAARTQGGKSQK
Chain of cytochrome P450 2C9-isoenzyme (P11712 whole entry): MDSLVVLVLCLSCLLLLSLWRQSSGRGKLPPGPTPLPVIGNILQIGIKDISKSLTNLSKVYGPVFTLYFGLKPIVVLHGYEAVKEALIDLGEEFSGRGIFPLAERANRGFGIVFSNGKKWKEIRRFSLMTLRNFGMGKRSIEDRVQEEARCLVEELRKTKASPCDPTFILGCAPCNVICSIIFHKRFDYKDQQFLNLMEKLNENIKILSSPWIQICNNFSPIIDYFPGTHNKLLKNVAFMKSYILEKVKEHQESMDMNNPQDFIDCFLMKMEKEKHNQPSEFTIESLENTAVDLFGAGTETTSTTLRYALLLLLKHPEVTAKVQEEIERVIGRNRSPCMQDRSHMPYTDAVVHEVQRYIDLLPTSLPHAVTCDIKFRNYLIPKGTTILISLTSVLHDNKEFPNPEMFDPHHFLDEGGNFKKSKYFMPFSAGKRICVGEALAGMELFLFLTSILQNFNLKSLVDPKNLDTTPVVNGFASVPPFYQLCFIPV
Chain of cytochrome P450 2C8-isoenzyme (P10632 whole entry): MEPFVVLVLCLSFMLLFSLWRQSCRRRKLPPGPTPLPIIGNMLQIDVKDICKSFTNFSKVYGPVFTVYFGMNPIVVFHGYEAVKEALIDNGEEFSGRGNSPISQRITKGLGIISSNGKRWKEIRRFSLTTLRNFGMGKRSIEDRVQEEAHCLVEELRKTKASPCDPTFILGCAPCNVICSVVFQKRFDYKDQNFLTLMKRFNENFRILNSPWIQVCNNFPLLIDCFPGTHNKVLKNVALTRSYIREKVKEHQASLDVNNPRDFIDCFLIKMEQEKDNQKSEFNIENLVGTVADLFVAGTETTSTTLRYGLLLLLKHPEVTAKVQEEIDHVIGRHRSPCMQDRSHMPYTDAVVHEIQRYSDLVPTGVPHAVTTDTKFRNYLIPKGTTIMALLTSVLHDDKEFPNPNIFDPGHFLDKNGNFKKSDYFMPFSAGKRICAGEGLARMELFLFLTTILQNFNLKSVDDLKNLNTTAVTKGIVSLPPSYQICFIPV

| Compound | EC50 (human GPR40 receptor; [4]) [µM] | Amount of degradation after 2 h [1] [%] | solubility at 24 h (Aqueous solubility) [mg/mL] | IC50 [2] [µM] | IC50 [3] [µM] | EC50 (human GPR40 receptor; head-to-head compilation, given as IC50, values equal the EC50 of Table 2, read-out: GPR40: IC50) [µM] | Solubility at pH value 2.2 (Aqueous solubility) [μg/mL] |
| --- | --- | --- | --- | --- | --- | --- | --- |
| Cc1cnc(-c2cc(C)c(-c3ccc(F)c4c3CC[C@H]4Nc3ccc([C@H]4C[C@@H]4C(=O)O)nc3)c(C)c2)nc1 [Example 21] | 0.002 |  |  | 15 | 36 |  | 91 |
| COc1cc(-c2cc(C)c(-c3ccc(F)c4c3CC[C@H]4Nc3ccc([C@H]4C[C@@H]4C(=O)O)nc3)c(C)c2)ccn1 [Example 22] | 0.005 |  |  | 8 | 19 |  | 106 |
| O=C(O)[C@H]1C[C@@H]1c1ccc(N[C@@H]2CCc3c(-c4c(Cl)cccc4Cl)ccc(F)c32)cn1 [Example 24] | 0.004 |  |  | 11 | 22 |  | >122 |
| Cc1cc(OCC2CCOCC2)cc(C)c1-c1ccc(F)c2c1CC[C@H]2Nc1ccc([C@H]2C[C@@H]2C(=O)O)nc1 [Example 26] | 0.006 |  |  | 14 | 16 |  | 90 |
| Cc1cc(-c2ccn(C)c(=O)c2)cc(C)c1-c1ccc(F)c2c1CC[C@H]2Nc1ccc([C@H]2C[C@@H]2C(=O)O)nc1 [Example 29] | 0.004 |  |  | 14 | > 50 |  | 117 |

Now from value to molecule:

| EC50 (human GPR40 receptor; [4]) [µM] | Amount of degradation after 2 h [1] [%] | solubility at 24 h (Aqueous solubility) [mg/mL] | IC50 [2] [µM] | IC50 [3] [µM] | EC50 (human GPR40 receptor; head-to-head compilation, given as IC50, values equal the EC50 of Table 2, read-out: GPR40: IC50) [µM] | Solubility at pH value 2.2 (Aqueous solubility) [μg/mL] | Compound |
| --- | --- | --- | --- | --- | --- | --- | --- |
| 0.035 | <0.5 | 0.121 (≈ 233 µM) | > 50 | > 50 |  |  | Cc1cc(O[C@@H]2COC[C@H]2O)cc(C)c1-c1ccc(F)c2c1CC[C@H]2Nc1ccc([C@H]2C[C@@H]2C(=O)O)nc1 [Example 5, (1S,2S)-2-(5-{(R)-7-Fluoro-4-[4-((3R,4R)-4-hydroxy-tetrahydro-furan-3-yloxy)-2,6-dimethyl-phenyl]-indan-1-ylamino}-pyridin-2-yl)-cyclopropanecarboxylic acid] |
|  | 3 |  |  |  |  |  | Cc1cc(-c2nnn(C)n2)cc(C)c1-c1ccc(F)c2c1CC[C@H]2Oc1ccc([C@H]2C[C@@H]2C(=O)O)cc1 [Example 15 in WO 2013/178575] |
|  | 8 | < 0.001 | 6 | 14 | 0.004 | < 1 | Cc1cc(OCCC(C)(C)O)cc(C)c1-c1ccc(F)c2c1CC[C@H]2Oc1ccc([C@H]2C[C@@H]2C(=O)O)cc1 [Example 17 in WO 2013/178575, reference compound] |
| 0.002 |  |  | 34 | > 50 |  | 113 | Cc1cc(-c2nnn(CC(C)(C)O)n2)cc(C)c1-c1ccc(F)c2c1CC[C@H]2Nc1ccc([C@H]2C[C@@H]2C(=O)O)nc1 [Example 20] |
| 0.668 |  |  | 43 | > 50 |  | 97 | Cc1cc(C(=O)O)cc(C)c1-c1ccc(F)c2c1CC[C@H]2Nc1ccc([C@H]2C[C@@H]2C(=O)O)nc1 [Example 23] |
| 0.148 |  |  | > 50 | > 50 |  | 112 | CNC(=O)c1cc(C)c(-c2ccc(F)c3c2CC[C@H]3Nc2ccc([C@H]3C[C@@H]3C(=O)O)nc2)c(C)c1 [Example 27] |
